Data taken from patent US8338410B2, “Neuroprotective compounds and pharmaceutical compositions comprising them” (Biocodex, priority 2005, dated 2012).

How the values were obtained:
[1] = system: mice subjected to hypobaric hypoxia; experiment: Hypobaric hypoxia in mice (survival time); type: in vivo, NMRI male mice; conditions: mice; for Percentage variation / Survival time in seconds (m ± sem): hypobaric hypoxia 160 mmHg
Protocol: 1.1 Hypobaric Hypoxia in Mice
NMRI male mice from Janvier weighing between 25 and 30 grams were used after acclimatisation in the animal house for at least 7 days (t°=22±2° C.; humidity 50±20%; feed UAR “A04” SAFE (Augy, France) and tap water ad libitum; 12 hour night and day cycle (light from 7 a.m. to 7 p.m.).
The unfasting […] were distributed at random into lots of 10.
The protocol of Nakaniski et al. (1973) Life Sciences, 13, 467-474 was adapted for the purposes of the model.
Each mouse was placed in a dessicator (hermetically sealed enclosure) in which atmospheric pressure was reduced from 760 to 160 mmHg using a water pump. This pressure reduction was carried out in one minute and caused death of the control animals in approximately 1 minute.
The survival time of the animal, which corresponded to the difference between the time to death of the mouse assessed by respiratory arrest less the time required to induce the hypoxia was then noted.
The products under investigation were administered intraperitoneally (i.p.) (0.1 ml/10 g), 30 minutes before inducing hypobaric hypoxia, or orally (0.1 ml/10 g p.o.) 1 hour before hypoxia.
Etifoxine hydrochloride was dissolved in 1% Tween 80. The potassium cyanide (Merck) was dissolved in 0.9% NaCl.
The statistical test used was a one-factor analysis of variance to determine the treated groups, which differed from the control group receiving the vehicle, at a threshold of 5%.

[2] = system: rats subjected to histotoxic hypoxia induced by potassium cyanide; experiment: KCN (i.v.) hypoxia in rats (survival time); type: in vivo, Wistar male rats; conditions: rats, KCN 4 mg/kg i.v.
[3] = system: mixed cultures of rat cortical neurones and astrocytes; experiment: Density of neuritic extensions marked by anti-neurofilament antibody, with or without excess glutamate; type: cell-based; conditions: for density of neurofilaments: control culture medium
Source text: The principle of the investigation consisted of evaluating the survival of cortical neurones in co-culture with astrocytes after the application of a neurotoxic agent, excess glutamate.
Neurone survival is quantified by the density of the system of neuritic extensions marked by an anti-neurofilament antibody in the absence or presence of glutamate.
(§1) • Cell type: Initial culture of cortical neurones from 14 day rat embryos and initial culture of cortical astrocytes from newborn rats. • Culture medium: DMEM-Ham F12 (Invitrogen 21331020) • B27 2% (invitrogen 17504044) • L-glutamine 2 mM (Invitrogen 25030024) • Penicillin 50 UI/ml—Streptomycin 50 μg/ml (Invitrogen 15070063) • Nerve Growth Factor 10 ng/ml (NGF, Invitrogen 13290.010) • Survival medium: MEM (Invitrogen 21090022) • L-glutamine 2 mM (Invitrogen 25030024) • Penicillin 50 UI/ml—Streptomycin 50 μg/ml (Invitrogen 15070063) • Supplement N2 (Invitrogen 17502-048) 1.2 Prior Cytotoxicity • Platelets: 96 wells • Culture time: 8 days • Cells/well: cortical neurones+astrocytes • Product range: from 100 μM then ratio 3 • Replicates: 3 • Cell/product contact: 48 hours • Evaluation parameters: microscopic observation and MTT hydrolysis. • MTT: 3-(4,5-dimethylthiozol-2-yl)-2,5-diphenyltetrazolium bromide 1.3 Treatment and Analysis of the Network of Extensions Marked with Antineurofilament Antibody
The cortical neurones were obtained from the cortex of 14 day rat embryos cultured in platelet culture medium 96 and then in a stove at 37° C. and 5% CO2 with saturated humidity. After 2 days culture astrocytes obtained from newborn rat cortex were seeded in the wells (in a ratio of 1 astrocyte to 4 neurones). After 10 days culture the mature neurones synthesised neurofilaments (structural protein specific to mature neurones); in addition to this these neurones expressed functional receptors to glutamate on their surfaces and could therefore be intoxicated.
On the 12th day of culture the medium was replaced by survival medium with or without etifoxine in 3 concentrations and the neurones were or were not intoxicated with glutamate (Sigma G1501) at a strength of 2 mM and 10 mM. Each culture condition was applied to 4 wells. The cultures were incubated for 2 periods (6 and 24 hours).
A positive control was carried out in the survival culture medium containing Nerve Growth Factor (NGF; 10 ng/ml) and basic Fibroblast Growth Factor (FGFb; 5 ng/ml) and the cells were intoxicated under the same conditions.
At the end of the two incubation periods (6 and 24 hours) the cell layers were fixed and marked with a anti-68- and 200 kD neurofilament monoclonal antibody (DAKO M0762) and then developed using a mouse anti-immunoglobulin goat antibody conjugate Alexia fluor 488 (Interchim A-11029). Controls without primary antibody were performed. All the controls were negative (no non-specific labelling). After extensive washing with PBS the preparations were observed under epi-fluorescence (Nikon Diaphot 300 microscope).
2 images were obtained for each culture well (4 wells per experimental condition) using a Nikon DXM1200F camera controlled by LUCIA 6.0 software.
All the images were obtained under the same conditions and with identical camera settings.
The densities of the networks of extensions marked with anti-neurofilament antibody were examined using LUCIA 6.0 software. Initial image processing made it possible to increase the intensity of the specific marking on the extensions. Areas in which marking was positive were binarised and the percentage marking per image was determined (marked surface area/total surface area examined).
The results (mean values±standard error with respect to the mean (SEM) were expressed as percentage marking per microscope field (n=8 measurements/culture conditions). 2-factor analysis of variance (Etifoxine and glutamate), followed by the Student Newman-Keuls multiple comparisons test was used for statistical comparison of the results. […]

[4] = system: cortical neurones in the presence of astrocytes in culture; experiment: Prior cytotoxicity, microscopic observation after 48 hours; type: cell-based; conditions: 100 μM, 48 hours incubation
Protocol: as §1
A first experiment was carried out (conventional test used to measure the level of cell survival) in order to investigate the cytotoxicity of etifoxine in relation to cortical neurones in the presence of astrocytes in culture and thus to determine the maximum non-toxic concentration of etifoxine.

In the case of `CCNC1=Nc2ccc(Cl)cc2C(C)(c2ccccc2)O1.Cl` (centres unmarked) [etifoxine, 6-chloro-2-ethylamino-4-methyl-4-phenyl-4H-[3,1]benzoxazine hydrochloride], the Percentage variation ([1]; i.p. 3 mg/kg) is reported as “+12%”, the “Survival time in seconds (m ± sem)” value ([1]; i.p. 3 mg/kg) is reported as 64.5 ± 3.4 s and the Percentage variation ([1]; i.p. 10 mg/kg) is reported as “+15%”. For the same molecule, the “Survival time in seconds (m ± sem)” value ([1]; i.p. 10 mg/kg) was 66.1 ± 3.0 s, the Percentage variation ([1]; i.p. 30 mg/kg) was “+42%” and the “Survival time in seconds (m ± sem)” value ([1]; i.p. 30 mg/kg) was 81.8 ± 4.6 s. For the same molecule, the Percentage variation ([1]; i.p. 50 mg/kg) was “+141%”, the “Survival time in seconds (m ± sem)” value ([1]; i.p. 50 mg/kg) was 138.5 ± 23.3 s and the Percentage variation ([1]; i.p. 75 mg/kg) was “+130%”. The “Survival time in seconds (m ± sem)” value ([1]; i.p. 75 mg/kg) was 132.0 ± 21.6 s, the Percentage variation ([1]; p.o. 30 mg/kg) was “+47%” and the “Survival time in seconds (m ± sem)” value ([1]; p.o. 30 mg/kg) was 81.5 ± 4.5 s. For the same molecule, the Percentage variation ([1]; p.o. 100 mg/kg) was “+72%”, the “Survival time in seconds (m ± sem)” value ([1]; p.o. 100 mg/kg) was 95.3 ± 5.6 s and the Percentage variation ([1]; p.o. 200 mg/kg) was “+79%”. For the same molecule, the “Survival time in seconds (m ± sem)” value ([1]; p.o. 200 mg/kg) was 99.5 ± 2.7 s, the Percentage variation ([1]; p.o. 300 mg/kg) was “+108%” and the “Survival time in seconds (m ± sem)” value ([1]; p.o. 300 mg/kg) was 115.5 ± 8.6 s. The time to death ([1]; hypobaric hypoxia, over 30 mg/1 kg i.p. or p.o.) was “significantly increased the time to death”, the Percentage variation ([2]; compound i.p. dose 30) was “+7%” and the “Survival time in seconds (m ± sem)” value ([2]; compound i.p. dose 30) was 60.3 ± 2.0 s. The Percentage variation ([2]; compound i.p. dose 50) was “+90%”, the “Survival time in seconds (m ± sem)” value ([2]; compound i.p. dose 50) was 107.3 ± 6.1 s and the Percentage variation ([2]; compound i.p. dose 75) was “+155%”. The “Survival time in seconds (m ± sem)” value ([2]; compound i.p. dose 75) was 144.3 ± 11.5 s, the Percentage variation ([2]; compound p.o. dose 50) was “+7%” and the “Survival time in seconds (m ± sem)” value ([2]; compound p.o. dose 50) was 59.5 ± 2.1 s. The Percentage variation ([2]; compound p.o. dose 100) was “+8%”, the “Survival time in seconds (m ± sem)” value ([2]; compound p.o. dose 100) was 60.1 ± 1.2 s and the Percentage variation ([2]; compound p.o. dose 200) was “+15%”. The “Survival time in seconds (m ± sem)” value ([2]; compound p.o. dose 200) was 63.9 ± 2.0 s, the time to death ([2]; from 50 mg/kg i.p. and 200 mg/kg p.o.) was “significantly increased the time to death” and the “density of marked neurofilaments” value ([3]; control culture medium (without glutamate), 6 hours, significant at 10 μM) was “increased the density of marked neurofilaments in a dose-dependent way”. For the same molecule, the density of neurofilaments ([3]; 24 hours, 10 μM) was “increased the density of neurofilaments”, the density of neurofilaments ([3]; 24 hours, 1 and 3 μM) was “without effect” and the “density of neurofilaments in the presence of glutamate” value ([3]; glutamate 2 mM, 24 hours, compound 10 μM) was “opposed the effects of 2 mM of glutamate”. For the same molecule, the “density of neurofilaments in the presence of glutamate” value ([3]; glutamate 2 and 10 mM, 6 hours, compound 3 and 10 μM) was “opposed the decrease in density of neurofilaments induced by glutamate” and the “astrocyte mortality, visual examination with a microscope” value [4] was “astrocyte mortality was observed”.
